Converted amounts (≈) assume the structure as drawn.
Key:
[1] = Spot-on-lawn assay, peptide-LTA complex formation; format: binding, Lactococcus lactis; settings: spot-on-lawn (LTA 1 mg/mL, 2 μL) and growth curves, L. lactis MG1363
Method: To evaluate the binding of peptide and lipid II or lipoteichoic acid (LTA), an overnight cultured L. lactis MG1363 was added to 0.8% GM17 (w/v, temperature 45 °C) at a final concentration of 0.1% (v/v), and then, the mixture was poured onto 10 mL plates. The binding of peptide and lipid II or LTA was further evaluated by spotting of purified lipid II (300 μM, 2 μL) or LTA (1 mg/mL, 2 μL) to the edge of the inhibition halo of antibiotics. Briefly, antimicrobials were loaded to the agar plate. After the antimicrobial solution drops had dried, lipid II or LTA was spotted to the edge of inhibition halo of antimicrobials. The plates were then incubated overnight at 30 °C after the drops had dried.

[2] = system: E. faecium LMG16003 (VRE); format: cell-based, Enterococcus faecium; settings: LMG16003
Method: (§1) Each experiment was performed in triplicate.

E. faecium LMG11423 = format: cell-based, Enterococcus faecium; settings: LMG11423
Method: as §1

L. lactis = test: Membrane potential determination (DiSC3(5) probe); format: cell-based, Lactococcus lactis; settings: 5× MIC, 10 mM HEPES with 10 mM glucose pH 7.2, 2 μM DiSC3(5), 25 min
Method: To measure the membrane potential, the membrane potential-sensitive fluorescent dye DiSC3(5) was utilized. L. lactis was cultured to an OD600 of 0.8, pelleted at 5000g for 5 min, and washed twice in 10 mM HEPES with 10 mM glucose (pH 7.2). The cell density was adjusted to an OD600 of 0.2 and loaded with 2 μM DiSC3(5) dye, followed by 20 min of incubation in the dark to stabilize the probe fluorescence. Next, the cell suspension was added to a 96-well microplate and incubated for 5 min with 100 mM KCl. […] The fluorescence spectrometer’s excitation and emission wavelengths were adjusted to 622 and 670 nm, respectively. Three technical replicates were performed, and the representative example is shown.

[3] = system: S. aureus LMG15975 (MRSA); format: cell-based, Staphylococcus aureus; settings: LMG15975
Method: as §1

S. aureus LMG10147 = format: cell-based, Staphylococcus aureus; settings: LMG10147
Method: as §1

L. lactis MG1363 [4] = test: Time-kill assay; format: cell-based, Lactococcus lactis; settings: 5-fold MIC
Method: The bactericidal activity of nisin, nisin(1–22), and rombocin was evaluated according to a previously described procedure based on Guo et al.[38] Briefly, an overnight culture of L. lactis MG1363 was diluted 50-fold in GM17 medium and incubated at 30 °C. The bacteria were grown until reaching an optical density at 600 nm (OD600) of 0.5, at which point the cell concentration was adjusted to 5 × 10^5 CFU/mL. Subsequently, the bacteria were challenged with a 5-fold MIC of each peptide. A control sample of an untreated cell suspension was included. At specific time points, 50 μL aliquots were collected, and undiluted and 10-fold serially diluted suspensions were plated on GM17 agar. The plates were incubated overnight at 30 °C, and the resulting colonies were counted and calculated as colony-forming units per milliliter (CFU/mL). Both assays were performed in triplicate to ensure reproducibility.

L. lactis MG1363 [5] = format: cell-based, Lactococcus lactis; settings: MG1363
Method: as §1

C=C1NC(=O)[C@H]([C@@H](C)CC)NC(=O)C(NC(=O)C(=CC)NC(=O)[C@@H](N)[C@@H](C)CC)CSC[C@@H](C(=O)NC2C(=O)N[C@@H](C)C(=O)NCC(=O)N[C@H](C(=O)N[C@H](C(=O)NC3C(=O)NCC(=O)N[C@@H](C(C)C)C(=O)N[C@@H]([C@@H](C)CC)C(=O)N[C@@H](CCSC)C(=O)NC(=CC)C(=O)N[C@H](C(=O)N[C@@H](CCSC)C(=O)NC4CSC[C@@H](C(=O)N[C@@H](CCCCN)C(=O)O)NC(=O)CNC(=O)[C@H](CC(N)=O)NC4=O)CSC3C)[C@@H](C)CC)CSC2C)NC(=O)[C@H](CC(C)C)NC1=O (stereo partly drawn) [rombocin A]
binding to lipoteichoic acid (LTA) [1]: utilizes electrostatic interactions to interact with the cell walls of target bacteria | MIC [2]: 100 µg/mL (≈ 42 µM) | MIC (E. faecium LMG11423): 100 µg/mL (≈ 42 µM) | membrane depolarization (DiSC3(5) fluorescence) (L. lactis): significant membrane depolarization | MIC [3]: 100 µg/mL (≈ 42 µM) | MIC (S. aureus LMG10147): 100 µg/mL (≈ 42 µM) | time to complete killing (L. lactis MG1363 [4]; L. lactis MG1363, 5 × 10^5 CFU/mL, CFU counting, triplicate): 18 h | bacteriostatic or bactericidal activity (L. lactis MG1363 [4]; L. lactis, time-dependent killing): strong bactericidal activity | MIC (L. lactis MG1363 [5]): 0,78 μg/mL

— paper PMC10804407, “Rombocin, a Short Stable Natural Nisin Variant, Displays Selective Antimicrobial Activity against Listeria monocytogenes and Employs a Dual Mode of Action to Kill Target Bacterial Strains” (ACS Synthetic Biology, 2024)
